Holding throughout (test): growth of human tumour cells (NCI), 48 h
Experiment [1] deals with NCI-H522 lung.
For experiment [2], the system named is SNB-75 CNS.
In experiment [3] the test system is UACC-62 melanoma.
Experiment [4] concerns SNB-19 CNS.
Experiment [5] concerns 786-0 renal.
For experiment [6], the system named is HS 578T breast.
The subject of experiment [7] is K-562 leukemia.
The subject of experiment [8] is OVCAR-4 ovarian.
Experiment [9] deals with MALME-3M melanoma.
For experiment [10], the system named is SR leukemia.

“And” between values parts separate entries of the source, which are not always exact repeats. Equal values may be shown once.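 Method: 48-hour compound exposure of cells in 96-well plates, five concentrations, linear interpolation of endpoints. Abbreviation: GI50, concentration required for 50% inhibition of growth. TGI: concentration producing complete growth inhibition.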

Consider `COC(=O)CCC(C)[C@H]1CCC2C3C(C[C@H](OC(C)=O)[C@@]21C)[C@@]1(C)CCC2(C[C@H]1C[C@H]3OC(C)=O)OOC1(CCC(C)CC1)OO2` (some centres undefined), for which the GI50 is 6.16 µM and 14.6 µM in experiment [1]; 13.7 µM and 40.7 µM in experiment [2]; 9.1 µM and 27.6 µM in experiment [5]; 2.01 µM and 9.68 µM in experiment [6]; 3.78 µM and 26.8 µM in experiment [7]; 3.75 µM and 18.2 µM in experiment [8]. Moreover, the TGI in experiment [1] was more than 100 µM; in experiment [2], more than 100 µM; in experiment [3] it was more than 100 µM; in experiment [4], more than 100 µM; in [5], > 100 µM and 95.9 µM; in experiment [6], 41.6 µM and 70.7 µM. Moreover, the TGI in experiment [7] is more than 100 µM; in experiment [8] it was 49.5 µM and > 100 µM; in [9], more than 100 µM; in [10], more than 100 µM.

With `NC(C/[N+]([O-])=N/O)C(=O)O` (centres undefined), the GI50 in experiment [1] was 8.03 µM and 33.6 µM; in experiment [2] it was 13.4 µM and 10.2 µM and 101 µM; in experiment [3], 6.05 µM and 7.49 µM and 3.12 µM; in experiment [4], 0.595 µM and 5.93 µM and 1.36 µM; in [5], 1.16 µM and 9.72 µM and 4.15 µM; in experiment [7], 29.5 µM and 11.2 µM and 15 µM. Moreover, the GI50 is 23.6 µM and > 100 µM and 21.2 µM in experiment [8]; 62.1 µM in experiment [9]. In addition, the TGI is > 59.6 µM and 284 µM in [1]; more than 500 µM in experiment [2]; > 100 µM and 81.9 µM in experiment [3]; > 100 µM and 268 µM in experiment [4]; more than 500 µM in experiment [5]; more than 225 µM in [6]. In addition, the TGI in experiment [7] is more than 419 µM; in [8], more than 449 µM; in experiment [9], more than 487 µM; in experiment [10], more than 228 µM.
